Measured values published in ChEMBL document CHEMBL1201862, “PubChem BioAssay data set” (2004).
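In this assay, cells in 96-well plates receive the compound at five concentrations for 48 hours. Endpoints are linearly interpolated between the surrounding concentrations. At the GI50, growth is halved.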 Calls of active or inactive are those of the source. No stated cut-off is given here; in the data, active = GI50 up to about 1.1 µM and inactive = higher.

What was measured:
Experiment in all cases: NCI anticancer screen, dose series, 48 h
[1] = system: CCRF-CEM
[2] = system: SK-MEL-5
[3] = system: COLO 205
[4] = system: HT-29
[5] = system: MDA-MB-231
[6] = system: OVCAR-4
[7] = system: TK-10
[8] = system: UO-31
[9] = system: OVCAR-5
[10] = system: SF-539
[11] = system: NCI-H460
[12] = system: M14
[13] = system: SW-620
[14] = system: MDA-N
[15] = system: NCI/ADR-RES
[16] = system: K562
[17] = system: CAKI-1
[18] = system: A498

Measured: GI50

COc1cc(Br)cc2cc(C3=CSC4=NCCN34)c(=O)oc12
inactive: [1] 25.8 µM | [2] 20 µM | [3] 20.7 µM | [4] 19.1 µM | [5] 19.6 µM | [6] 18.2 µM | [7] 18.8 µM | [8] 19.3 µM | [9] 23.3 µM | [10] 19.9 µM | [11] 19.9 µM | [12] 22.2 µM | [13] 25.3 µM | [14] 18.5 µM | [15] 65.9 µM | [16] 26.5 µM | [17] 34.7 µM

COc1ccc2c(c1)c(CC(=O)O)c(C)n2C(=O)c1ccc(Cl)cc1
inactive: [1] 33.8 µM | [2] > 100 µM | [3] > 100 µM | [4] > 100 µM | [5] > 100 µM | [6] > 100 µM | [7] 36.6 µM | [8] 41.8 µM | [9] > 100 µM | [10] 98.2 µM | [11] 39.9 µM | [12] > 100 µM | [13] > 100 µM | [14] > 100 µM | [15] > 100 µM | [16] 13.7 µM | [17] 29.6 µM

Cc1cc(S(=O)(=O)Nc2n[nH]c(-c3ccc(Cl)cn3)n2)c(S)cc1Cl
inactive: [2] 44.4 µM | [3] > 100 µM | [4] 39.3 µM | [5] > 100 µM | [6] 53.8 µM | [7] > 100 µM | [8] 29.5 µM | [9] > 100 µM | [10] 44.1 µM | [11] 36.9 µM | [12] 76.6 µM | [13] 83.6 µM | [14] 63.4 µM | [15] 85.5 µM | [18] 87.3 µM | [17] 44 µM

COC(=O)C1(Cc2cccc(Cl)c2)CCCCCCN1C(=O)c1ccccc1 (stereo not drawn)
inactive: [1] 13.1 µM | [2] 12.8 µM | [3] 15.5 µM | [4] 12.9 µM | [5] 13 µM | [6] 14.5 µM | [7] 12 µM | [8] 10.8 µM | [9] 15.8 µM | [11] 15.2 µM | [12] 17.9 µM | [13] 18.2 µM | [14] 16.5 µM | [15] 16.9 µM | [16] 10.7 µM | [18] 15.4 µM

CCC(=O)O[C@H]1CC[C@H]2[C@@H]3CCC4=C/C(=N/NC(=O)c5cccc6c(=O)c7ccccc7[nH]c56)CC[C@]4(C)[C@H]3CC[C@]12C
inactive: [1] > 25 µM | [2] > 25 µM | [3] > 25 µM | [4] > 25 µM | [5] > 25 µM | [6] > 25 µM | [7] > 25 µM | [8] > 25 µM | [9] > 25 µM | [10] > 25 µM | [11] > 25 µM | [12] > 25 µM | [13] > 25 µM | [14] > 25 µM | [15] > 25 µM | [16] > 25 µM | [18] > 25 µM

COC(=O)/C(C#N)=C(\Nc1ccccc1)N1CCOCC1
inactive: [2] > 100 µM | [3] > 100 µM | [4] > 100 µM | [5] > 100 µM | [6] > 100 µM | [7] > 100 µM | [8] > 100 µM | [9] > 100 µM | [10] > 100 µM | [11] > 100 µM | [12] > 100 µM | [13] > 100 µM | [14] > 100 µM | [15] > 100 µM | [16] > 100 µM | [18] > 100 µM | [17] > 100 µM

O=C1c2ccccc2C(=O)N1n1c(Cc2ccc([N+](=O)[O-])cc2)n[nH]c1=O
inactive: [2] > 100 µM | [4] > 100 µM | [5] > 100 µM | [7] > 100 µM | [8] > 100 µM | [9] > 100 µM | [10] > 100 µM | [11] > 100 µM | [13] > 100 µM | [14] > 100 µM | [15] > 100 µM | [16] > 100 µM | [18] > 100 µM | [17] > 100 µM

O=C(NNS(=O)(=O)c1ccccc1)c1csc(NC(=S)NC2CCCCC2)n1
inactive: [1] 39.6 µM | [2] 14.4 µM | [3] 19.3 µM | [4] 33.6 µM | [5] 22.8 µM | [6] 34.6 µM | [7] 35.6 µM | [8] 23.9 µM | [9] 52.1 µM | [10] 37.5 µM | [12] 39.2 µM | [13] 25 µM | [14] 18.5 µM | [15] 38.4 µM | [16] 56.6 µM | [18] 80.5 µM | [17] 28.4 µM

N#Cc1c(N)oc(-c2ccc([N+](=O)[O-])cc2)c1C#N
inactive: [1] 67.5 µM | [2] 17 µM | [3] 43.9 µM | [4] 34.4 µM | [5] 22 µM | [7] 28.4 µM | [8] 19.1 µM | [9] 69.8 µM | [10] 19.8 µM | [12] 75.3 µM | [13] 58.3 µM | [14] 30.3 µM | [15] 18.7 µM | [18] 22.1 µM | [17] 24.3 µM

O/N=C1\C/C(=N\O)c2c(Br)sc(Br)c21
inactive: [1] 11.1 µM | [2] > 100 µM | [3] 70.8 µM | [4] > 100 µM | [5] 77.1 µM | [6] 27.2 µM | [7] 38.5 µM | [8] 20.6 µM | [10] 38.2 µM | [11] > 100 µM | [12] 45.6 µM | [13] 26.4 µM | [14] 78.5 µM | [15] 30.2 µM | [16] 37.5 µM | [18] 58.1 µM | [17] 19.4 µM

Cc1cc2[nH]c3c(C#N)c(-c4ccccc4)c(/C=N/c4cccc(C(F)(F)F)c4)c(=O)n3c2cc1C
inactive: [1] 72.8 µM | [2] > 100 µM | [3] > 100 µM | [5] > 100 µM | [6] 99.5 µM | [7] > 100 µM | [8] > 100 µM | [9] > 100 µM | [10] 63.4 µM | [11] > 100 µM | [12] > 100 µM | [13] 59.7 µM | [14] 79.3 µM | [15] > 100 µM | [18] > 100 µM | [17] 89.9 µM

Cc1cn(CCOCCOC(=O)NC(CCCNC(=N)N)C(=O)O)c(=O)[nH]c1=O (stereo not drawn)
inactive: [1] > 100 µM | [3] > 100 µM | [4] > 100 µM | [5] > 100 µM | [6] > 100 µM | [7] > 100 µM | [8] > 100 µM | [9] > 100 µM | [10] > 100 µM | [11] > 100 µM | [12] > 100 µM | [13] > 100 µM | [14] > 100 µM | [15] 26.8 µM | [16] > 100 µM | [18] > 100 µM

CCOC(=O)c1cc(-c2ccn(C(C)=O)c2)c(-c2cc(C)co2)[nH]1
inactive: [1] > 100 µM | [2] > 100 µM | [3] > 100 µM | [5] > 100 µM | [6] > 100 µM | [7] > 100 µM | [8] > 100 µM | [9] > 100 µM | [11] > 100 µM | [12] > 100 µM | [13] > 100 µM | [14] > 100 µM | [15] > 100 µM | [16] > 100 µM | [18] > 100 µM | [17] > 100 µM

CCc1c2c(cc3c1CC1(C3)Cc3cc4c(c(C(=O)OC)c3C1)CCCC4)CCCC2 (stereo not drawn)
inactive: [1] 51.3 µM | [2] > 100 µM | [3] > 100 µM | [4] > 100 µM | [5] > 100 µM | [6] > 100 µM | [7] > 100 µM | [8] > 100 µM | [9] > 100 µM | [10] > 100 µM | [12] > 100 µM | [14] > 100 µM | [15] > 100 µM | [16] > 100 µM | [18] > 100 µM

O=CC1C[C@@H](N2C(=O)O[C@@H](c3ccccc3)[C@H]2c2ccccc2)[C@@H]1COCc1ccccc1 (stereo partly drawn)
inactive: [2] 15.2 µM | [3] 19.9 µM | [4] 17.9 µM | [5] 15.7 µM | [6] 28.6 µM | [7] 20.1 µM | [8] 15.2 µM | [9] 22.4 µM | [10] 18.7 µM | [11] 18.3 µM | [12] 19.1 µM | [13] 21.5 µM | [14] 15 µM | [15] 26.6 µM | [16] 21.1 µM | [18] 20.9 µM | [17] 36.2 µM

CC(C)SC(C)(NC(=O)C1C(C)(C)CCC1(C)C)C(=O)O (stereo not drawn)
inactive: [1] > 100 µM | [2] > 100 µM | [3] > 100 µM | [5] > 100 µM | [7] > 100 µM | [8] > 100 µM | [9] > 100 µM | [10] > 100 µM | [11] > 100 µM | [12] > 100 µM | [13] > 100 µM | [14] > 100 µM | [15] > 100 µM | [16] > 100 µM | [18] > 100 µM
